# According to US20200129499A1, “COMBINATION OF TASQUINIMOD OR A PHARMACEUTICALLY ACCEPTABLE SALT THEREOF AND A PD-1 AND/OR PD-L1 INHIBITOR, FOR USE AS A MEDICAMENT” (ACTIVE BIOTECH AB, priority 2015, published 2020):
# Tests used:
# [1] = tested on: human prostate, breast, bladder and colon tumor xenografts; conditions: pre-clinical models, Isaacs et al. 2013; cited from earlier work
# [2] = tested on: MBT-2 tumors; assay: Differential mRNA expression (qRT-PCR) in established MBT-2 tumors (Table S1); type: in vivo, mouse
# Method: The relative mRNA expression of different genes was examined in MBT-2 tumors of treated animals with tasquinimod as compared to control group. Treatment started at day 11 post-tumor cell inoculation and qRT-PCR analysis was performed at day 15. Results are represented as mean fold-change compared with control. P values were evaluated using student test.
# RNA extraction of murine CD1 1b+ was performed using the PicoPure® RNA Isolation Kit (Life Technologies). RNA in tumors was isolated from 100 μ ? -thick cryosections of OCT-embedded tumors using Trizol Reagent (Life Technologies). cDNAs were prepared using the High-Capacity cDNA Reverse Transcription Kit (Life Technologies) following the manufacturer's instructions. cDNA from CD1 1b+ isolated cells was pre-amplified (14 cycles) using the TaqMan PreAmp Master Mix (Life Technologies). Real time PCR (q-PCR) was performed with a two-step PCR protocol (95° C. for 10 min, followed by 40 cycles at 95° C. for 15 s and 60° C. for 1 min) using Taqman gene expression (Life Technologies). The probes that were used are documented in Table S2. Hmbs was used as “housekeeping” gene whose expression was correlated to other housekeeping quantified genes (e.g. Cyclophilin A). Expression levels were calculated as normalized ACt expression values between target gene and “housekeeping” genes.
# [3] = tasquinimod 30 mg/kg from day 11, qRT-PCR at day 15
structure (smiles),measurement,setting,value
"COc1cccc2c1c(O)c(C(=O)N(C)c1ccc(C(F)(F)F)cc1)c(=O)n2C [tasquinimod, 4-hydroxy-5-methoxy-N,1-dimethyl-2-oxo-N-[4-(trifluoromethyl)phenyl]-1,2-dihydroquinoline-3-carboxamide]",efficacy as monotherapeutic agent against tumor xenografts,[1],effective as a monotherapeutic agent
same,mRNA expression of PD-L1 in MBT-2 tumors,"[2]; established tumors, tasquinimod 30 mg/kg",increased
same,"Fold change tasquinimod/control, CCL5 mRNA",[2]; [3],0.88
same,"Fold change tasquinimod/control, CCL7 mRNA",[2]; [3],0.90
same,"Fold change tasquinimod/control, Ccl2 mRNA",[2]; [3],0.86
same,"Fold change tasquinimod/control, Cd274/PD-L1 mRNA",[2]; [3],1.46
same,"Fold change tasquinimod/control, Cxcl5 mRNA",[2]; [3],2.31
same,"Fold change tasquinimod/control, Cxcl9 mRNA",[2]; [3],0.80
same,"Fold change tasquinimod/control, Cxcl11 mRNA",[2]; [3],1.63
same,"Fold change tasquinimod/control, II-12b mRNA",[2]; [3],1.71
same,"Fold change tasquinimod/control, Ifng mRNA",[2]; [3],1.53
same,"Fold change tasquinimod/control, Mrc1/CD206 mRNA",[2]; [3],0.90
same,"Fold change tasquinimod/control, Nos2 mRNA",[2]; [3],1.76
same,"Fold change tasquinimod/control, Serpinb2 mRNA",[2]; [3],3.65
same,"Fold change tasquinimod/control, Tnf mRNA",[2]; [3],1.19
